This note sets out measurements from EP4238971A1, “SUBSTITUTED ISOXAZOLINE DERIVATIVES” (BASF SE, priority 2022, dated 2023).

Read-outs that look alike come from different tables or passages of the source. A value given as a limit tells only on which side of the number the result lay.

Type in all cases: in vivo
One series relates to Plutella xylostella. Description: Diamond back moth (Plutella xylostella), cabbage leaf disc dip test. The following applies: for mortality at 300 ppm: Plutella xylostella, foliar, read-out: mortality in comparison with untreated controls. The method, then: B.5. Diamond back moth (Plutella xylostella)
The active compound was dissolved at the desired concentration in a mixture of 1:1 (vol:vol) distilled water: acetone. Surfactant (Kinetic) was added at a rate of 0.01% (vol/vol). The test solution was prepared at the day of use. Cabbage leaf discs (60mm in diameter) were dipped in test solution and air-dried. Treated leaves were placed in petri dishes lined with moistened filter paper and inoculated with ten 3rd instar larvae. Mortality was recorded 72 hours after treatment. Feeding damages were also recorded using a scale of 0-100%.

The subject of the next series is Aedes aegypti. The series is described as follows: whole plant or invertebrate. The following applies: larval mortality visually assessed after 2 days; for mortality in comparison with untreated controls: 2500ppm; for mortality at 2500 ppm: Aedes aegypti, 48 h, read-out: mortality in comparison with untreated controls. The method, then: (§1) If not otherwise specified, the test solutions were prepared as follows: The active compound was dissolved at the desired concentration in a mixture of 1:1 (vol:vol) distilled water:acetone. The test solution was prepared at the day of use.
(§2) Test solutions were prepared in general at a concentration of 2500ppm (wt/vol).
B.4. Yellow fever mosquito (Aedes aegypti)
For evaluating control of Yellow Fever Mosquito, the test unit consisted of 96-well-microtiter plates containing 200µl of tap water per well and 5-15 freshly hatched A. aegypti larvae. The active compounds were formulated using a solution containing 75% (v/v) water and 25% (v/v) DMSO. Different concentrations of formulated compounds or mixtures were sprayed onto the insect diet at 2.5µl, using a custom-built micro atomizer, at two replications.
After application, microtiter plates were incubated at 28 ± 1°C, 80 ± 5 % RH for 2 days. Larval mortality was then visually assessed.

The test system of the next series is Myzus persicae. Description: Green peach aphid (Myzus persicae), mixed life stages, systemic test via artificial diet under membrane. The following applies: for mortality at 2500 ppm: Myzus persicae, 72 h, read-out: mortality in comparison with untreated controls. The method, then: as §1, §2
B.2. Green peach aphid (Myzus persicae) (mixed life stages)
For evaluating control of Green Peach Aphid through systemic means the test unit consisted of 96-well-microtiter plates containing liquid artificial diet under an artificial membrane. The compounds were formulated using a solution containing 75% v/v water and 25% v/v DMSO. Different concentrations of formulated compounds were pipetted into the aphid diet, using a custom-built pipette, at two replications. After application, 5 - 8 adult aphids were placed on the artificial membrane inside the microtiter plate wells. The aphids were then allowed to suck on the treated aphid diet and incubated at about 23 ± 1°C and about 50 ± 5 % relative humidity for 3 days. Aphid mortality and fecundity was then visually assessed.

The test system of a further series is Anthonomus grandis. Description: Boll weevil (Anthonomus grandis) control, insect diet in 96-well microtiter plates. The settings on record: for mortality in comparison with untreated controls: 2500ppm; for mortality at 2500 ppm: Anthonomus grandis, 120 h, read-out: mortality in comparison with untreated controls. On the procedure: as §1, §2
B.1. Boll weevil (Anthonomus grandis)
For evaluating control of boll weevil, the test unit consisted of 96-well-microtiter plates containing an insect diet and 5-10 A. grandis eggs.
The compounds were formulated using a solution containing 75% v/v water and 25% v/v DMSO. Different concentrations of formulated compounds were sprayed onto the insect diet at 5µl, using a custom-built micro atomizer, at two replications.
After application, microtiter plates were incubated at about 25 ± 1°C and about 75 ± 5 % relative humidity for 5 days. Egg and larval mortality were then visually assessed.

The subject of a further series is Dichromothrips corbetti. The series is described as follows: Orchid thrips (Dichromothrips corbetti), floral-immersion technique. The settings on record: for mortality at 300 ppm: Dichromothrips corbetti, read-out: mortality in comparison with untreated controls. On the procedure:
B.6. Orchid thrips (Dichromothrips corbetti)
Dichromothrips corbetti adults used for bioassay were obtained from a colony maintained continuously under laboratory conditions. For testing purposes, the test compound was diluted in a 1:1 mixture of acetone:water (vol:vol), plus Kinetic at a rate of 0.01% v/v.
Thrips potency of each compound was evaluated by using a floral-immersion technique. Each orchid petal was dipped into treatment solution and allowed to dry in Petri dishes. Treated petals were placed into individual re-sealable plastic along with about 20 adult thrips. All test arenas were held under dark condition and a temperature of about 28°C for duration of the assay. The percent mortality was recorded 72 hours after treatment.

Another series deals with Spodoptera eridania. The series is described as follows: Southern armyworm (Spodoptera eridania), 2nd instar larvae, sprayed lima bean plants. The following applies: for mortality in comparison with untreated controls: 300ppm, 2nd instar larvae, assessed 4 days after treatment; for mortality at 300 ppm: Spodoptera eridania, 96 h, read-out: mortality in comparison with untreated controls. The method, then: B.7. Southern armyworm (Spodoptera eridania), 2nd instar larvae
The active compounds were formulated by a Tecan liquid handler in 100% cyclohexanone as a 10'000 ppm solution supplied in tubes. The 10'000 ppm solution was serially diluted in 100% cyclohexanone to make interim solutions. These served as stock solutions for which final dilutions were made by the Tecan in 50% acetone:50% water (v/v) into 10 or 20ml glass vials. A nonionic surfactant (Kinetic®) was included in the solution at a volume of 0.01% (v/v). The vials were then inserted into an automated electrostatic sprayer equipped with an atomizing nozzle for application to plants/insects. Lima bean plants (variety Sieva) were grown 2 plants to a pot and selected for treatment at the 1st true leaf stage. Test solutions were sprayed onto the foliage by an automated electrostatic plant sprayer equipped with an atomizing spray nozzle. The plants were dried in the sprayer fume hood and then removed from the sprayer. Each pot was placed into perforated plastic bags with a zip closure. Ten to 11 armyworm larvae were placed into the bag and the bags zipped closed. Test plants were maintained in a growth room at about 25°C and about 20-40% relative humidity for 4 days, avoiding direct exposure to fluorescent light (14:10 light:dark photo-period) to prevent trapping of heat inside the bags. Mortality and reduced feeding were assessed 4 days after treatment, compared to untreated control plants.

A further series relates to Heliothis virescens. The series is described as follows: Tobacco budworm (Heliothis virescens) control, insect diet in 96-well microtiter plates. The following applies: for mortality at 2500 ppm: Heliothis virescens, 120 h, read-out: mortality in comparison with untreated controls. The method, then:
as §1, §2
B.3. Tobacco budworm (Heliothis virescens)
For evaluating control of Tobacco Budworm, the test unit consisted of 96-well-microtiter plates containing an insect diet and 15-25 H. virescens eggs. The compounds were formulated using a solution containing 75% v/v water and 25% v/v DMSO. Different concentrations of formulated compounds were sprayed onto the insect diet at 10µl, using a custom-built micro atomizer, at two replications. After application, microtiter plates were incubated at about 28 ± 1°C and about 80 ± 5 % relative humidity for 5 days. Egg and larval mortality was then visually assessed.

Setting [1] is: 300ppm, 3rd instar larvae, mortality recorded 72 hours after treatment.
Setting [2] is: 2500ppm, aphid mortality visually assessed after 3 days.
[3] abbreviates: egg and larval mortality visually assessed after 5 days.
Where [4] appears, read: 300ppm, adult thrips, mortality recorded 72 hours after treatment.
[5] abbreviates: 2500ppm, egg and larval mortality visually assessed after 5 days.

For `N#Cc1ccc(NC2=NOC(c3cc(Cl)cc(Cl)c3)(C(F)(F)F)C2)cc1-n1cncn1` (centres unmarked) [I-1], the “mortality in comparison with untreated controls” value (from here on “mortality in comparison”) with Plutella xylostella (setting [1]), with Aedes aegypti, with Myzus persicae (setting [2]), with Anthonomus grandis (setting [3]), with Dichromothrips corbetti (setting [4]) and in the series with Spodoptera eridania was “at least 75%” in each case. In addition, the “mortality in comparison” value in the series with Heliothis virescens (setting [5]) is “at least 75%”.
For `N#Cc1ccc(NC2=NOC(c3cc(Cl)c(F)c(Cl)c3)(C(F)(F)F)C2)cc1-n1cncn1` (centres unmarked) [I-4, 4-[[5-(3,5-dichloro-4-fluoro-phenyl)-5-(trifluoromethyl)-4H-isoxazol-3-yl]amino]-2-(1,2,4-triazol-1-yl)benzonitrile], the mortality at 300 ppm in the series with Plutella xylostella (72 h), with Dichromothrips corbetti (72 h) and in the series with Spodoptera eridania was ≥ 75% each time. Also, the mortality at 2500 ppm in the series with Aedes aegypti, in the series on Myzus persicae, in the series with Anthonomus grandis and in the series on Heliothis virescens was ≥ 75% throughout.
Take `N#Cc1ccc(NC2=NOC(c3cccc(C(F)(F)F)c3)(C(F)(F)F)C2)cc1-n1cncn1` (centres unmarked) [I-5]: the “mortality in comparison” value with Plutella xylostella (setting [1]), with Aedes aegypti, in the series with Myzus persicae (setting [2]), with Anthonomus grandis (setting [3]), in the series on Dichromothrips corbetti (setting [4]) and with Spodoptera eridania was “at least 75%” each time. For the same molecule, the “mortality in comparison” value with Heliothis virescens (setting [5]) was “at least 75%”.
Turning to `N#Cc1ccc(NC2=NOC(c3ccc(F)c(Cl)c3)(C(F)(F)F)C2)cc1-n1cncn1` (centres unmarked) [I-6], the “mortality in comparison” value in the series with Plutella xylostella (setting [1]), in the series on Aedes aegypti, in the series with Myzus persicae (setting [2]), with Anthonomus grandis (setting [3]), with Dichromothrips corbetti (setting [4]) and in the series with Spodoptera eridania was “at least 75%” in each case. Also, the “mortality in comparison” value with Heliothis virescens (setting [5]) is given as “at least 75%”.
`Fc1c(Cl)cc(C2(C(F)(F)F)CC(Nc3ccc(Cl)c(-n4cnc(C(F)(F)F)c4)c3)=NO2)cc1Cl` (centres unmarked) [I-16, N-[4-chloro-3-[4-(trifluoromethyl)imidazol-1-yl]phenyl]-5-(3,5-dichloro-4-fluoro-phenyl)-5-(trifluoromethyl)-4H-isoxazol-3-amine]: the mortality at 300 ppm in the series on Plutella xylostella (72 h) and with Dichromothrips corbetti (72 h) was ≥ 75% throughout. In addition, the mortality at 2500 ppm in the series with Aedes aegypti, in the series with Myzus persicae, in the series on Anthonomus grandis and with Heliothis virescens was ≥ 75% throughout.
For `O=C(NCC(F)(F)F)c1cnn(-c2cc(NC3=NOC(c4cc(Cl)c(F)c(Cl)c4)(C(F)(F)F)C3)ccc2Cl)c1` (centres unmarked) [I-18, 1-[2-chloro-5-[[5-(3,5-dichloro-4-fluoro-phenyl)-5-(trifluoromethyl)-4H-isoxazol-3-yl]amino]phenyl]-N-(2,2,2-trifluoroethyl)pyrazole-4-carboxamide], the mortality at 300 ppm in the series with Plutella xylostella (setting [1]) and in the series on Dichromothrips corbetti (setting [4]) was ≥ 75% in each case. Also, the mortality at 2500 ppm with Myzus persicae (setting [2]) was ≥ 75%; in the series on Anthonomus grandis (2500 ppm, egg and larval mortality visually assessed after 5 days), ≥ 75%; with Heliothis virescens (setting [5]), ≥ 75%.
`CCN(C1=NOC(c2cc(Cl)c(F)c(Cl)c2)(C(F)(F)F)C1)c1ccc(C#N)c(-n2cncn2)c1` (centres unmarked) [I-20, 4-[[5-(3,5-dichloro-4-fluoro-phenyl)-5-(trifluoromethyl)-4H-isoxazol-3-yl]-ethyl-amino]-2-(1,2,4-triazol-1-yl)benzonitrile]: the mortality at 300 ppm in the series on Plutella xylostella (72 h), in the series with Dichromothrips corbetti (72 h) and in the series with Spodoptera eridania was ≥ 75% in each case. The mortality at 2500 ppm in the series on Aedes aegypti, in the series with Anthonomus grandis and with Heliothis virescens was ≥ 75% throughout.
On to `COCN(C1=NOC(c2cc(Cl)c(F)c(Cl)c2)(C(F)(F)F)C1)c1ccc(C#N)c(-n2cncn2)c1` (centres unmarked) [I-22], for which the “mortality in comparison” value in the series on Plutella xylostella (setting [1]) and with Dichromothrips corbetti (setting [4]) was “at least 75%” in each case.
With `CCOC(=O)N(C1=NOC(c2cc(Cl)c(F)c(Cl)c2)(C(F)(F)F)C1)c1ccc(Cl)c(-n2cnc(C(F)(F)F)c2)c1` (centres unmarked) [I-26, ethyl N-[4-chloro-3-[4-(trifluoromethyl)imidazol-1-yl]phenyl]-N-[5-(3,5-dichloro-4-fluoro-phenyl)-5-(trifluoromethyl)-4H-isoxazol-3-yl]carbamate], the mortality at 300 ppm in the series with Plutella xylostella (72 h), in the series on Dichromothrips corbetti (72 h) and in the series on Spodoptera eridania was ≥ 75% each time. Further, the mortality at 2500 ppm with Aedes aegypti, in the series with Anthonomus grandis and in the series on Heliothis virescens was ≥ 75% in each case.
Regarding “N-[4-chloro-3-[4-(trifluoromethyl)pyrazol-1-yl]phenyl]-5-(3,5-dichloro-4-fluoro-phenyl)-N-(methoxymethyl)-5-(trifluoromethyl)-4H-isoxazol-3-amine [I-23]”, the “mortality in comparison” value with Plutella xylostella (setting [1]), with Dichromothrips corbetti (setting [4]) and in the series with Spodoptera eridania was “at least 75%” throughout.

The mortality is the percentage killed.
